From patent publication US20100093609A1, “PRODRUGS OF TRICIRIBINE AND TRICIRIBINE PHOSPHATE” (priority 2007, published 2010)

Experiments:
in vitro = conditions: human
[1] = Stability in 100 mM phosphate buffer, pH 6.5; conditions: pH 6.5, 37° C., 0-3 hours, LC/MS/MS
[2] = Systemic plasma concentrations after duodenal administration to rats; conditions: rat, duodenal administration of 3 mg

IC50 at 8 days (in vitro): 32 µM
stability in buffer (in words) [1]: stable
intestinal absorption / plasma levels (in words) [2]: very little intestinal absorption
peak plasma levels ([2]; FIGS. 5 and 6): about 1.25 ng/ml
AUC0-4 hr of the administered compound (parent or intact prodrug) ([2]; plasma over 4 hours): 4.4 ± 0.9 (ng/ml)/hr
SMILES: CN1N=C(N)c2cn([C@@H]3O[C@H](COP(=O)(O)O)[C@@H](O)[C@H]3O)c3ncnc1c23 [TCNP, 6-amino-4-methyl-8-(beta.-D-ribofuranosyl)pyrrolo[4,3,2-de]pyrimido[4,5-c]pyridazine 5′ phosphate]
cytotoxic effects (in words) (HFF cells): more toxic than TCN
